In paper PMC9150124, “Design of a Potent, Selective, and Brain-Penetrant Inhibitor of Wnt-Deactivating Enzyme Notum by Optimization of a Crystallographic Fragment Hit” (Journal of Medicinal Chemistry, 2022):

Legend:
Type in all cases: biochemical
[1] = target: kinase named in conditions (Homo sapiens, UniProt O75582); experiment: SelectScreen kinase profiling, SSBK ZLyte SP Technology; conditions: RPS6KA5 (MSK1), 10 μM
Method: (§1) Kinase selectivity screening was performed by Thermo Fisher Scientific (Paisley, U.K.) in their SelectScreen Biochemical Kinase Profiling Service. Assay information and data are presented in the Supporting Information.
(§2) Kinase selectivity screening was performed by ThermoFisher Scientific (Paisley, U.K.) in their SelectScreenTM
(§3) Biochemical Kinase Profiling service .

[2] = target: kinase named in conditions (Homo sapiens, UniProt Q9HBY8); experiment: as above; conditions: SGK2, 10 μM
Method: as §1, §2, §3

[3] = target: kinase named in conditions (Homo sapiens, UniProt O15111); experiment: SelectScreen kinase profiling, SSBK Adapta SP Technology; conditions: CHUK (IKK alpha), 10 μM
[4] = target: kinase named in conditions (Homo sapiens, UniProt O00750); experiment: as above; conditions: PIK3C2B (PI3K-C2 beta), 10 μM
[5] = target: kinase named in conditions (Homo sapiens, UniProt O00329); experiment: as above; conditions: PIK3CD/PIK3R1 (p110 delta/p85 alpha), 10 μM
[6] = target: kinase named in conditions (Homo sapiens, UniProt Q99755); experiment: as above; conditions: PIP5K1A, 10 μM
[7] = target: kinase named in conditions (Homo sapiens, UniProt Q9UBF8); experiment: as above; conditions: PI4KB (PI4K beta), 10 μM
[8] = target: kinase named in conditions (Homo sapiens, UniProt Q8TF76); experiment: as above; conditions: GSG2 (Haspin), 10 μM
[9] = target: kinase named in conditions (Homo sapiens, UniProt O00443); experiment: as above; conditions: PIK3C2A (PI3K-C2 alpha), 10 μM
[10] = target: kinase named in conditions (Homo sapiens, UniProt P42336, E545K); experiment: as above; conditions: PIK3CA E545K/PIK3R1 (p110 alpha E545K/p85 alpha), 10 μM
[11] = target: kinase named in conditions (Homo sapiens, UniProt O75747); experiment: as above; conditions: PIK3C2G (PI3K-C2 gamma), 10 μM
[12] = target: kinase named in conditions (Homo sapiens, UniProt Q14012); experiment: as above; conditions: CAMK1 (CaMK1), 10 μM
[13] = target: kinase named in conditions (Homo sapiens, UniProt Q9BTU6); experiment: as above; conditions: PI4K2A (PI4K2 alpha), 10 μM
[14] = target: kinase named in conditions (Homo sapiens, UniProt Q8NEB9); experiment: as above; conditions: PIK3C3 (hVPS34), 10 μM
[15] = target: kinase named in conditions (Homo sapiens, UniProt P48736); experiment: as above; conditions: PIK3CG (p110 gamma), 10 μM
[16] = target: kinase named in conditions (Homo sapiens, UniProt P42336); experiment: as above; conditions: 10 μM
[17] = target: kinase named in conditions (Homo sapiens, UniProt O60285); experiment: as above; conditions: NUAK1 (ARK5), 10 μM
[18] = target: kinase named in conditions (Homo sapiens, UniProt O14986); experiment: as above; conditions: PIP5K1B, 10 μM
[19] = target: kinase named in conditions (Homo sapiens, UniProt P48426); experiment: as above; conditions: PIP4K2A, 10 μM
[20] = target: kinase named in conditions (Homo sapiens, UniProt Q5S007, G2019S); experiment: as above; conditions: LRRK2 G2019S FL, 10 μM
[21] = target: kinase named in conditions (Homo sapiens, UniProt P42338); experiment: as above; conditions: 10 μM
[22] = target: kinase named in conditions (Homo sapiens, UniProt O60331); experiment: as above; conditions: PIP5K1C, 10 μM
[23] = target: kinase named in conditions (Homo sapiens, UniProt P11802); experiment: as above
[24] = target: kinase named in conditions (Homo sapiens, UniProt P42356); experiment: as above; conditions: PI4KA (PI4K alpha), 10 μM
[25] = target: kinase named in conditions (Homo sapiens, UniProt Q5S007); experiment: as above; conditions: LRRK2 FL, 10 μM
[26] = target: kinase named in conditions (Homo sapiens, UniProt P50750); experiment: as above; conditions: CDK9/cyclin T1, 10 μM
[27] = target: kinase named in conditions (Homo sapiens, UniProt P50613); experiment: as above; conditions: CDK7/cyclin H/MNAT1, 10 μM
[28] = target: kinase named in conditions (Homo sapiens, UniProt P42336, E542K); experiment: as above; conditions: PIK3CA E542K/PIK3R1 (p110 alpha E542K/p85 alpha), 10 μM
[29] = test system: kinase named in conditions; experiment: as above
[30] = target: kinase named in conditions (Homo sapiens, UniProt Q8TCG2); experiment: as above; conditions: PI4K2B (PI4K2 beta), 10 μM
[31] = target: kinase named in conditions (Homo sapiens, UniProt Q00534); experiment: as above; conditions: CDK6/cyclin D1, 10 μM

Sequence of kinase named in conditions (Homo sapiens, UniProt P42336, E542K) (P42336 whole entry E542K): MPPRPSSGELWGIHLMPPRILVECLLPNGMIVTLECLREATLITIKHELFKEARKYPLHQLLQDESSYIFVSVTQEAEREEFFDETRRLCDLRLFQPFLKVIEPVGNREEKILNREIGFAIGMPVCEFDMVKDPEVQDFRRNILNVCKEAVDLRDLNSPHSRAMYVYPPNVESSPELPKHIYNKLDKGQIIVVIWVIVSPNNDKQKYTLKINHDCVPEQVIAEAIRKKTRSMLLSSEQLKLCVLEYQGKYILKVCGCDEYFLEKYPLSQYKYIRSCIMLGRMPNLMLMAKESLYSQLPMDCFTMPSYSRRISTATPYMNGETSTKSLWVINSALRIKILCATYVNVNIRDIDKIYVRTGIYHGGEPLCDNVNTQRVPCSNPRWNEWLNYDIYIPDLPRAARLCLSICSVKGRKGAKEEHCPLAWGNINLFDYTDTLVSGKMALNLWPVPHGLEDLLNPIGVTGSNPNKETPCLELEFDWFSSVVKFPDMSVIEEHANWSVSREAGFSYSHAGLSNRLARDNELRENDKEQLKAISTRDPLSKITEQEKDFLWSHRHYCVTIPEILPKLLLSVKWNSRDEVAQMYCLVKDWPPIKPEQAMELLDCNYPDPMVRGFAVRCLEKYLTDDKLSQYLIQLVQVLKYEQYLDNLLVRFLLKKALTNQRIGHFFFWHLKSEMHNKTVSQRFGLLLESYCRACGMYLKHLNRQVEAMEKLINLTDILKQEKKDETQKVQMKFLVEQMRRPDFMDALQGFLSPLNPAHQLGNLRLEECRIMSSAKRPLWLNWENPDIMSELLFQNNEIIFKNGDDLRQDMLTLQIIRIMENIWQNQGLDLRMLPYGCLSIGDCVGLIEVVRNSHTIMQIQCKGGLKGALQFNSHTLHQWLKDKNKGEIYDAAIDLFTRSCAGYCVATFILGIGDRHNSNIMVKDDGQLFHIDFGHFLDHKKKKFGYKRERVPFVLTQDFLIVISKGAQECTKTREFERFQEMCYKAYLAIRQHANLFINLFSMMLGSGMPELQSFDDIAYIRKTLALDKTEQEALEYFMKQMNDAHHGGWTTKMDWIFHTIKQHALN
Sequence of kinase named in conditions (Homo sapiens, UniProt P42336, E542K) (P27986 whole entry partner): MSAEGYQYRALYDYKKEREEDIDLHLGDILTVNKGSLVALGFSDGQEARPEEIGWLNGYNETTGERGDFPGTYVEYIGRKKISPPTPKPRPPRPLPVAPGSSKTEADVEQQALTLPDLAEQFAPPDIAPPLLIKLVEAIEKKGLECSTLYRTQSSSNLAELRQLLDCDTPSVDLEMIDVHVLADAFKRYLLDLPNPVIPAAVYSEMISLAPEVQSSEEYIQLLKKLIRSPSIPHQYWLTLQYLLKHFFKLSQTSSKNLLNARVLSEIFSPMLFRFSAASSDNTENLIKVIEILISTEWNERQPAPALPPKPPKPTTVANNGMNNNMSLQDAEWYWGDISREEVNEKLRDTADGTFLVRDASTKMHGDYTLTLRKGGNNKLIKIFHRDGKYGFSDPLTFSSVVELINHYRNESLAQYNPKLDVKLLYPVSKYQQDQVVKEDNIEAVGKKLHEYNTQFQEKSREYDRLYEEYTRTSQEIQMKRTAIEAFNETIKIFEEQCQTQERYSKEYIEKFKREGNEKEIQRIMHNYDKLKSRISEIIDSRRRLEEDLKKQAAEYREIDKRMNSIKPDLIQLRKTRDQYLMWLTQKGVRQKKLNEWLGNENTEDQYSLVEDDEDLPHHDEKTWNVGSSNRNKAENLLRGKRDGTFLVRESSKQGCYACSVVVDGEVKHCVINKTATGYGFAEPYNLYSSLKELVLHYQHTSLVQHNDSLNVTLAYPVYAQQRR
Sequence of kinase named in conditions (Homo sapiens, UniProt P48736) (P48736 whole entry): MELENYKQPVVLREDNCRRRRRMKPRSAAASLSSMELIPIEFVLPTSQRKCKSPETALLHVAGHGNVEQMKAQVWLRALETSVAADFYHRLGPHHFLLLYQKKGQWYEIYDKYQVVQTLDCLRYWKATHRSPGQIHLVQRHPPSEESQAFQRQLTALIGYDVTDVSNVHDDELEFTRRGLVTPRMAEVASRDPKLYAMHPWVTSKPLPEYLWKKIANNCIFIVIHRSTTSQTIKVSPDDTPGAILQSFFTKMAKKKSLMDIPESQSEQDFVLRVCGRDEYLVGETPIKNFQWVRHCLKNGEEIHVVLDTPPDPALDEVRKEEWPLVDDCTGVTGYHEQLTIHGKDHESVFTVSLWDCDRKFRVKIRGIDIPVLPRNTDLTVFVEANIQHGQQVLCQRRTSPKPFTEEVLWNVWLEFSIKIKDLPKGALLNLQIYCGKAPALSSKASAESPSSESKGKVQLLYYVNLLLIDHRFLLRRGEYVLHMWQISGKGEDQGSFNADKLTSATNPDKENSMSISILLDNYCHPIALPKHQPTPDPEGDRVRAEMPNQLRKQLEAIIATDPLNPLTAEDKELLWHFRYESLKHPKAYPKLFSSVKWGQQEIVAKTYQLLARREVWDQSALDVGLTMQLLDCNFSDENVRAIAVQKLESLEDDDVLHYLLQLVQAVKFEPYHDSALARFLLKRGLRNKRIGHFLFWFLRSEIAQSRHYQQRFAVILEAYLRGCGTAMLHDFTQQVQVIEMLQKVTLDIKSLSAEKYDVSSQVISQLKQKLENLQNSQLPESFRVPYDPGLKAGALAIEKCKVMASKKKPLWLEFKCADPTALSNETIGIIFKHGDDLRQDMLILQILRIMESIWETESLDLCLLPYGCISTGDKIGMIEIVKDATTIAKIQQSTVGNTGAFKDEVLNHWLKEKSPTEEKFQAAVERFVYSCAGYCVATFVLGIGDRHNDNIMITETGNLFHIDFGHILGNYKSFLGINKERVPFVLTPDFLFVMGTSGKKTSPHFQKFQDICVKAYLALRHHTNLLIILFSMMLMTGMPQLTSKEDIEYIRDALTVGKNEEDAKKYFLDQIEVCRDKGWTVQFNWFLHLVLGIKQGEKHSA
Sequence of kinase named in conditions (Homo sapiens, UniProt Q9BTU6) (Q9BTU6 whole entry): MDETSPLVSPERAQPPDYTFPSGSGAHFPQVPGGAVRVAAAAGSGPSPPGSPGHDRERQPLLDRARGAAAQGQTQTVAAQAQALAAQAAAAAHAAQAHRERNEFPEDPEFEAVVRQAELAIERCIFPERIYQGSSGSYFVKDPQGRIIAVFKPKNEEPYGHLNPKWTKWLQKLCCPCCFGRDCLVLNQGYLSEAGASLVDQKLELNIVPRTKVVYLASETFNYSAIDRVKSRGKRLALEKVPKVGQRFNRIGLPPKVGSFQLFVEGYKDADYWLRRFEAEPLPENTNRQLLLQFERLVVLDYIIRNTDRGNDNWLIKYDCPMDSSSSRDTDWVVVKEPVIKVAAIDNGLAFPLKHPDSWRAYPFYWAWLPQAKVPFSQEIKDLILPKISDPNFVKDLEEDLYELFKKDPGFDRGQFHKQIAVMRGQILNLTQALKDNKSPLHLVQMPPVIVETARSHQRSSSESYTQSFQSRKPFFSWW
Sequence of kinase named in conditions (Homo sapiens, UniProt O15111) (O15111 whole entry): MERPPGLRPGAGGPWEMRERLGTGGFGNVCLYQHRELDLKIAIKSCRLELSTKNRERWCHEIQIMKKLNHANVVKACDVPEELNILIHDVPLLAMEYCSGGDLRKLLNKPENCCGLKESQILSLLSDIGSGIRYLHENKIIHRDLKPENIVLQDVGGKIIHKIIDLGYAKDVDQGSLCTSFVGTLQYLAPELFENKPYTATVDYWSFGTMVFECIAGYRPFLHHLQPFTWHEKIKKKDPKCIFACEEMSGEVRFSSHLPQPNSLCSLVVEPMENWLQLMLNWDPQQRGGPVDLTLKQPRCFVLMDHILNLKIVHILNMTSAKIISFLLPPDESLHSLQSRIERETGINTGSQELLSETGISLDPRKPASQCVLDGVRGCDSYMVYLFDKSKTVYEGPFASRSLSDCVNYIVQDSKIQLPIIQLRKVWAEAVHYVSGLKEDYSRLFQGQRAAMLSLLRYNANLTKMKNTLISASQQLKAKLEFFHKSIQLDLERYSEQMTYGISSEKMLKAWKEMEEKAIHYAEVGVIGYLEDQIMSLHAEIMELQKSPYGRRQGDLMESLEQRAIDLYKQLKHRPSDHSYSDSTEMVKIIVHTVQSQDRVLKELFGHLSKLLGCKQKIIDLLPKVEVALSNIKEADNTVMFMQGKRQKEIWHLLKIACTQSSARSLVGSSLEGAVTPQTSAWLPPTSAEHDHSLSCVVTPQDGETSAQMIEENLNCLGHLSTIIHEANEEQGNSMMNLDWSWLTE
Sequence of kinase named in conditions (Homo sapiens, UniProt Q14012) (Q14012 whole entry): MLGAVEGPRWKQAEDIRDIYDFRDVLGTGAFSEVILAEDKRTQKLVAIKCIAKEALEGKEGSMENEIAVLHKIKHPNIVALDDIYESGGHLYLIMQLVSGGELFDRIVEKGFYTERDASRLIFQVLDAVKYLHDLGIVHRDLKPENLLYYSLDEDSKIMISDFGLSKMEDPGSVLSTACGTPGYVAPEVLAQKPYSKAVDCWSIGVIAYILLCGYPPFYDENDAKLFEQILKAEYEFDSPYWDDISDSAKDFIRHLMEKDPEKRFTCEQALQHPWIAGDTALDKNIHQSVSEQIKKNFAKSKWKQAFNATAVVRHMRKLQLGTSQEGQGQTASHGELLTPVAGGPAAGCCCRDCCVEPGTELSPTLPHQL
Sequence of kinase named in conditions (Homo sapiens, UniProt Q9HBY8) (Q9HBY8 whole entry): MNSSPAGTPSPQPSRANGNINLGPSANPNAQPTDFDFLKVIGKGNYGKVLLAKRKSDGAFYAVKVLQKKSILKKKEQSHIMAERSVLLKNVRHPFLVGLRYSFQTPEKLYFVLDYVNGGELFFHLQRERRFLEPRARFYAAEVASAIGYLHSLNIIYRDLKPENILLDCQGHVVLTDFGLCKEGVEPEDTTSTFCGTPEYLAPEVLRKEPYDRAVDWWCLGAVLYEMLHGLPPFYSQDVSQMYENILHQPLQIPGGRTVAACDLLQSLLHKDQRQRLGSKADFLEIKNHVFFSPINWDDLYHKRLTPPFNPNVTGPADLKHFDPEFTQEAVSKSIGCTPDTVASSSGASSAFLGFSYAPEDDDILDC
Sequence of kinase named in conditions (Homo sapiens, UniProt P42336, E545K) (P42336 whole entry E545K): as the sequence (P42336 whole entry E542K) above, with K542E, E545K counted along it
Sequence of kinase named in conditions (Homo sapiens, UniProt P42336, E545K) (P27986 whole entry partner): as the sequence (P27986 whole entry partner) above

For `FC(F)(F)c1c(Cl)ccc(-n2ccnn2)c1Cl` [8l, 1-(2,4-Dichloro-3-(trifluoromethyl)phenyl)-1H-1,2,3-triazole], the inhibition at 10 µM [1] was 9%, the inhibition at 10 µM [2] was 4% and the inhibition at 10 µM [3] was 4%. It also gave an inhibition at 10 µM [4] of 8%, an inhibition at 10 µM [5] of -25% and an inhibition at 10 µM [6] of 0%. For the same compound, the inhibition at 10 µM [7] was 1%, the inhibition at 10 µM [8] was 10% and the inhibition at 10 µM [9] was -10%. The inhibition at 10 µM [10] was 8%, the inhibition at 10 µM [11] was 11% and the inhibition at 10 µM [12] was 11%. For the same compound, the inhibition at 10 µM [13] was 13%, the inhibition at 10 µM [14] was -5% and the inhibition at 10 µM [15] was -15%. For the same compound, the inhibition at 10 µM ([16]; PIK3CA/PIK3R1 (p110 alpha/p85 alpha)) was -6%, the inhibition at 10 µM ([16]; PIK3CA/PIK3R3 (p110 alpha/p55 gamma)) was 0% and the inhibition at 10 µM [17] was -3%. It also gave an inhibition at 10 µM [18] of 1%, an inhibition at 10 µM [19] of -1% and an inhibition at 10 µM [20] of 15%. It also gave an inhibition at 10 µM ([21]; PIK3CB/PIK3R1 (p110 beta/p85 alpha)) of 1%, an inhibition at 10 µM ([21]; PIK3CB/PIK3R2 (p110 beta/p85 beta)) of 15% and an inhibition at 10 µM [22] of -2%. The inhibition at 10 µM ([23]; CDK4/cyclin D1, 10 μM) was 6%, the inhibition at 10 µM ([23]; CDK4/cyclin D3, 10 μM) was 4% and the inhibition at 10 µM [24] was -4%. The inhibition at 10 µM [25] was 7%, the inhibition at 10 µM [26] was -3% and the inhibition at 10 µM [27] was -3%. For the same compound, the inhibition at 10 µM [28] was 6%, the “% Inhibition mean” value ([29]; DAPK1, 10 μM) was -8% and the “% Inhibition mean” value ([29]; IRAK1, 10 μM) was -10%. The “% Inhibition mean” value ([29]; LRRK2, 10 μM) was -12%, the “% Inhibition mean” value ([29]; LRRK2 G2019S, 10 μM) was 1% and the “% Inhibition mean” value ([29]; LRRK2 I2020T, 10 μM) was 1%. For the same compound, the “% Inhibition mean” value ([29]; LRRK2 R1441C, 10 μM) was 1%, the “% Inhibition mean” value ([29]; SPHK1, 10 μM) was -8% and the “% Inhibition mean” value ([29]; SPHK2, 10 μM) was 0%. For the same compound, the inhibition at 10 µM [30] was 16% and the inhibition at 10 µM [31] was -3%.
